Peptide text beside a SMILES is read from it.
Assays:
FPR2 = molecular target: T1, FPR2 (Homo sapiens, UniProt P25090); experiment: Change in calcium activity by peptide (Fura-2) in RBL cells overexpressing FPR2; type: cell-based; details: calcium activity (Fura-2), graded per Table 3, read-out: EC50 for [Ca^2+] FPR2
T1 construct: expressed in transfected cells; host or cells: RBL cells (RBL-FPR2)
T1 sequence (P25090 1-351): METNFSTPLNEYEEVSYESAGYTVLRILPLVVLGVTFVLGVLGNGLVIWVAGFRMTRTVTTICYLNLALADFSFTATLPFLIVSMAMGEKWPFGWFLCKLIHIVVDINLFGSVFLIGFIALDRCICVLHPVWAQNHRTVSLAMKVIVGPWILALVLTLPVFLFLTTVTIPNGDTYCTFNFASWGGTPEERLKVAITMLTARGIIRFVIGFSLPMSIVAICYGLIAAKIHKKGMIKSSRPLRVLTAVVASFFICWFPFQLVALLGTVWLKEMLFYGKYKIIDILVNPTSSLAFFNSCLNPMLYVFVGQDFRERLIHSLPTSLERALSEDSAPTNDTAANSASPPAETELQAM
Summary of the method: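 Peptide-induced intracellular calcium change measured by Fura-2 fluorescence on a plate reader. Cells: RBL line overexpressing FPR2, dye-loaded 1 h at 37 °C then 30 min at RT in dark; peptides from 0.5 mM water/50% DMSO stocks, diluted in HBSS with 20 mM HEPES.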

FPR1 = molecular target: T2, FPR1 (Homo sapiens, UniProt P21462); experiment: Change in calcium activity by peptide, FPR1 activation effect; type: cell-based; details: calcium activity (Fura-2), graded per Table 3, read-out: EC50 for [Ca^2+] FPR1
T2 sequence (P21462 1-350): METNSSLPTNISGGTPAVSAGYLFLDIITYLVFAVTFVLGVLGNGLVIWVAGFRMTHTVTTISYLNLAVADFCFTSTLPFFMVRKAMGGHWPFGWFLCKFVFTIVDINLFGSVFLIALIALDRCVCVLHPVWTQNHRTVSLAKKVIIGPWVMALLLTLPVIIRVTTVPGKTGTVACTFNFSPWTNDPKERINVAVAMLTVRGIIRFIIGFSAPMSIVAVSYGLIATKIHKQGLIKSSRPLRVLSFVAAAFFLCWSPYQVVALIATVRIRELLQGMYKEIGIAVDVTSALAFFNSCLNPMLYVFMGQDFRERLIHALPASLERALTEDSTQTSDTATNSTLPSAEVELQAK
Summary of the method: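 Calcium flux induced by peptide addition was monitored on a FlexStation 3 plate reader. Before this, cells seeded a day earlier (3×10^5/well) took up the Fura-2 dye for 1 h at 37 °C plus 30 min dark at room temperature.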

RAW264.7 cell line = experiment: Cytokine inhibition ability: LPS-induced cytokine gene expression in RAW264.7 macrophages; type: cell-based, mouse; details: grade of reduction rate of gene expression, peptide 100 nM, LPS 200 ng/mL, 6 hours
Method: The present inventors observed the cytokine inhibition ability of the immunomodulatory peptide candidates prepared according to one example of the present invention. Specifically, to confirm whether the peptides reduce inflammatory responses in cells, changes in cytokine gene expression in cells upon inflammation was measured.
The present inventors used a RAW264.7 cell line, that is, mouse macrophages, and used lipopolysaccharide (LPS; Sigma-Aldrich, #L2630), which is the main component of a gram-negative bacterial cell wall, as a material causing an inflammatory response. A peptide that had been dissolved in water at 100 μM was prepared.
In the present experiment, the cells were cultured in a DMEM (Lonza, #BE12-604F) containing 10% FBS and 1% penicillin-streptomycin under conditions of 37° C. and 5% CO2.
The cells were plated in a 24-well plate (Costar, #3603) at a density of 2.5×10^5 cells/well. After 24 hours, the prepared cells were treated with the peptide at 100 nM. After incubation at 37° C. for 30 minutes, to induce inflammation, 200 ng/mL of LPS was treated. After incubation at 37° C. for 6 hours, the cells in a medium-free state were treated with TRIzol™ (Invitrogen, #15596018) to lyse the cells. Through the given experimental method, RNA was obtained, cDNA was produced using a reverse transcriptase (Promega, #M1705). Afterward, a cytokine expression level was measured using SYBR Green (Enzynomics, RT530) and mouse primers of each inflammatory cytokine gene (TNFα, IL-6, and IL-1β).

CSCC[C@H](N)C(=O)N[C@@H](CCCCN)C(=O)N[C@@H](Cc1ccc(O)cc1)C(=O)N[C@@H](Cc1c[nH]c2ccccc12)C(=O)N1CCC[C@H]1C(=O)N[C@H](CCSC)C(N)=O [Peptide 113] (HELM PEPTIDE1{M.K.Y.W.P.[dM].[am]}$$$$V2.0)
EC50 (FPR2): < 10 nM
EC50 (FPR1): 1000 to 10000 nM
Cytokine inhibition ability IL-1β (RAW264.7 cell line): D (21%-40%)
Cytokine inhibition ability IL-6 (RAW264.7 cell line): B (61%-80%)
Cytokine inhibition ability TNFα (RAW264.7 cell line): D (21%-40%)

CCCC(=O)N[C@@H](CCSC)C(=O)N[C@@H](CCCCN)C(=O)N[C@@H](Cc1ccc(O)cc1)C(=O)N[C@@H](CCCCN)C(=O)N[C@H](C(=O)N[C@H](CCSC)C(N)=O)C(C)C [Peptide 19] (HELM PEPTIDE1{[CCCC(=O)[*:2]].M.K.Y.K.V.[dM].[am]}$$$$V2.0)
EC50 (FPR2): < 10 nM
EC50 (FPR1): > 10000 nM
Cytokine inhibition ability IL-1β (RAW264.7 cell line): A (81%-100%)
Cytokine inhibition ability IL-6 (RAW264.7 cell line): B (61%-80%)
Cytokine inhibition ability TNFα (RAW264.7 cell line): B (61%-80%)

CSCC[C@H](NC(C)=O)C(=O)N[C@@H](CCCCN)C(=O)N[C@@H](Cc1ccc(O)cc1)C(=O)N[C@@H](CCCCN)C(=O)N[C@H](C(=O)N[C@H](CCSC)C(N)=O)C(C)C [Peptide 18] (HELM PEPTIDE1{[ac].M.K.Y.K.V.[dM].[am]}$$$$V2.0)
EC50 (FPR2): < 10 nM
EC50 (FPR1): > 10000 nM
Cytokine inhibition ability IL-1β (RAW264.7 cell line): A (81%-100%)
Cytokine inhibition ability IL-6 (RAW264.7 cell line): D (21%-40%)
Cytokine inhibition ability TNFα (RAW264.7 cell line): A (81%-100%)

CCCCCCCC(=O)N[C@@H](CCCNC(=N)N)C(=O)N[C@@H](CCSC)C(=O)N[C@@H](CCCNC(=N)N)C(=O)N[C@@H](Cc1ccc(O)cc1)C(=O)N[C@@H](CCCCN)C(=O)N[C@@H](Cc1ccc(O)cc1)C(=O)N[C@H](CCSC)C(N)=O [Peptide 40] (HELM PEPTIDE1{[CCCCCCCC(=O)[*:2]].R.M.R.Y.K.Y.[dM].[am]}$$$$V2.0)
EC50 (FPR2): 11 to 100 nM
EC50 (FPR1): > 10000 nM
Cytokine inhibition ability IL-1β (RAW264.7 cell line): A (81%-100%)
Cytokine inhibition ability IL-6 (RAW264.7 cell line): C (41%-60%)
Cytokine inhibition ability TNFα (RAW264.7 cell line): B (61%-80%)

CSCC[C@H](NC(=O)[C@H](CCCNC(=N)N)NC(C)=O)C(=O)N[C@@H](CCCNC(=N)N)C(=O)N[C@@H](Cc1ccc(O)cc1)C(=O)N[C@@H](CCCCN)C(=O)N[C@@H](Cc1ccc(O)cc1)C(=O)N[C@H](CCSC)C(N)=O [Peptide 39] (HELM PEPTIDE1{[ac].R.M.R.Y.K.Y.[dM].[am]}$$$$V2.0)
EC50 (FPR2): 11 to 100 nM
EC50 (FPR1): > 10000 nM
Cytokine inhibition ability IL-1β (RAW264.7 cell line): B (61%-80%)
Cytokine inhibition ability IL-6 (RAW264.7 cell line): D (21%-40%)
Cytokine inhibition ability TNFα (RAW264.7 cell line): B (61%-80%)

CSCC[C@H](NC(C)=O)C(=O)N[C@@H](CCCNC(=N)N)C(=O)N[C@@H](Cc1ccc(O)cc1)C(=O)N[C@@H](CCCCN)C(=O)N1CCC[C@H]1C(=O)N[C@H](CCSC)C(N)=O [Peptide 55] (HELM PEPTIDE1{[ac].M.R.Y.K.P.[dM].[am]}$$$$V2.0)
EC50 (FPR2): < 10 nM
EC50 (FPR1): > 10000 nM
Cytokine inhibition ability IL-1β (RAW264.7 cell line): A (81%-100%)
Cytokine inhibition ability IL-6 (RAW264.7 cell line): B (61%-80%)
Cytokine inhibition ability TNFα (RAW264.7 cell line): B (61%-80%)

CSCC[C@H](NC(=O)[C@@H](N)CCCNC(=N)N)C(=O)N[C@@H](CCCNC(=N)N)C(=O)N[C@@H](Cc1ccc(O)cc1)C(=O)N[C@@H](Cc1c[nH]c2ccccc12)C(=O)N[C@@H](Cc1ccc(O)cc1)C(=O)N[C@H](CCSC)C(N)=O [Peptide 81] (HELM PEPTIDE1{R.M.R.Y.W.Y.[dM].[am]}$$$$V2.0)
EC50 (FPR2): < 10 nM
EC50 (FPR1): > 10000 nM
Cytokine inhibition ability IL-1β (RAW264.7 cell line): A (81%-100%)
Cytokine inhibition ability IL-6 (RAW264.7 cell line): C (41%-60%)
Cytokine inhibition ability TNFα (RAW264.7 cell line): A (81%-100%)

CSCC[C@H](NC(C)=O)C(=O)N[C@@H](CCCCN)C(=O)N[C@@H](Cc1ccc(O)cc1)C(=O)N[C@@H](Cc1c[nH]c2ccccc12)C(=O)N1CCC[C@H]1C(=O)N[C@H](CCSC)C(N)=O [Peptide 114] (HELM PEPTIDE1{[ac].M.K.Y.W.P.[dM].[am]}$$$$V2.0)
EC50 (FPR2): < 10 nM
EC50 (FPR1): 1000 to 10000 nM
Cytokine inhibition ability IL-1β (RAW264.7 cell line): B (61%-80%)
Cytokine inhibition ability IL-6 (RAW264.7 cell line): E (0%-20%)
Cytokine inhibition ability TNFα (RAW264.7 cell line): A (81%-100%)

CCCCCCCC(=O)N[C@@H](CCSC)C(=O)N[C@@H](CCCCN)C(=O)N[C@@H](Cc1ccc(O)cc1)C(=O)N[C@@H](CCCCN)C(=O)N[C@H](C(=O)N[C@H](CCSC)C(N)=O)C(C)C [Peptide 20] (HELM PEPTIDE1{[CCCCCCCC(=O)[*:2]].M.K.Y.K.V.[dM].[am]}$$$$V2.0)
EC50 (FPR2): 11 to 100 nM
EC50 (FPR1): > 10000 nM
Cytokine inhibition ability IL-1β (RAW264.7 cell line): B (61%-80%)
Cytokine inhibition ability IL-6 (RAW264.7 cell line): B (61%-80%)
Cytokine inhibition ability TNFα (RAW264.7 cell line): B (61%-80%)

CCCC(=O)N[C@@H](CCSC)C(=O)N[C@@H](CCCCN)C(=O)N[C@@H](Cc1ccc(O)cc1)C(=O)N[C@@H](Cc1c[nH]c2ccccc12)C(=O)N1CCC[C@H]1C(=O)N[C@H](CCSC)C(N)=O [Peptide 115] (HELM PEPTIDE1{[CCCC(=O)[*:2]].M.K.Y.W.P.[dM].[am]}$$$$V2.0)
EC50 (FPR2): < 10 nM
EC50 (FPR1): 1000 to 10000 nM
Cytokine inhibition ability IL-1β (RAW264.7 cell line): B (61%-80%)
Cytokine inhibition ability IL-6 (RAW264.7 cell line): B (61%-80%)
Cytokine inhibition ability TNFα (RAW264.7 cell line): C (41%-60%)

CSCC[C@H](NC(=O)[C@@H](N)CCCNC(=N)N)C(=O)N[C@@H](CCCNC(=N)N)C(=O)N[C@@H](Cc1ccc(O)cc1)C(=O)N[C@@H](CCCCN)C(=O)N[C@@H](Cc1ccc(O)cc1)C(=O)N[C@H](CCSC)C(N)=O [Peptide 38] (HELM PEPTIDE1{R.M.R.Y.K.Y.[dM].[am]}$$$$V2.0)
EC50 (FPR2): < 10 nM
EC50 (FPR1): > 10000 nM
Cytokine inhibition ability IL-1β (RAW264.7 cell line): A (81%-100%)
Cytokine inhibition ability IL-6 (RAW264.7 cell line): C (41%-60%)
Cytokine inhibition ability TNFα (RAW264.7 cell line): B (61%-80%)

CSCC[C@H](NC(=O)[C@H](CCCNC(=N)N)NC(C)=O)C(=O)N[C@@H](CCCNC(=N)N)C(=O)N[C@@H](Cc1ccc(O)cc1)C(=O)N[C@@H](Cc1c[nH]c2ccccc12)C(=O)N[C@@H](Cc1ccc(O)cc1)C(=O)N[C@H](CCSC)C(N)=O [Peptide 82] (HELM PEPTIDE1{[ac].R.M.R.Y.W.Y.[dM].[am]}$$$$V2.0)
EC50 (FPR2): < 10 nM
EC50 (FPR1): > 10000 nM
Cytokine inhibition ability IL-1β (RAW264.7 cell line): B (61%-80%)
Cytokine inhibition ability IL-6 (RAW264.7 cell line): D (21%-40%)
Cytokine inhibition ability TNFα (RAW264.7 cell line): A (81%-100%)

CCCCCCCC(=O)N[C@@H](CCCNC(=N)N)C(=O)N[C@@H](CCSC)C(=O)N[C@@H](CCCNC(=N)N)C(=O)N[C@@H](Cc1ccc(O)cc1)C(=O)N[C@@H](Cc1c[nH]c2ccccc12)C(=O)N[C@@H](Cc1ccc(O)cc1)C(=O)N[C@H](CCSC)C(N)=O [Peptide 84] (HELM PEPTIDE1{[CCCCCCCC(=O)[*:2]].R.M.R.Y.W.Y.[dM].[am]}$$$$V2.0)
EC50 (FPR2): 11 to 100 nM
EC50 (FPR1): > 10000 nM
Cytokine inhibition ability IL-1β (RAW264.7 cell line): B (61%-80%)
Cytokine inhibition ability IL-6 (RAW264.7 cell line): E (0%-20%)
Cytokine inhibition ability TNFα (RAW264.7 cell line): A (81%-100%)
